Like-named read-outs stand apart in the source and are kept apart here.
System: panel of 55 breast cancer cell lines
Experiment: Cell growth inhibition assay (Cell Titer Glo, 72 h, 9 doses; GI50, TGI, LC50)
Assay type: cell-based, human
Conditions: Homo sapiens, read-out: GI50 (converted)

CC[C@@]1(O)C(=O)OCc2c1cc1n(c2=O)Cc2cc3c(CN(C)C)c(O)ccc3nc2-1 [Topotecan]
GI50 (AU565, AU565 cell line, censored GI50 values): 0.0186 µM | GI50 (AU565, cell line AU565): 0.0186 µM | GI50 (BT-474, BT474 cell line, censored GI50 values): 2.51 µM | GI50 (BT-474, cell line BT474): 2.51 µM | GI50 (BT-483, BT483 cell line, censored GI50 values): 0.0162 µM | GI50 (BT-483, cell line BT483): 0.0162 µM | GI50 (CAMA-1, CAMA1 cell line, censored GI50 values): 0.398 µM | GI50 (CAMA-1, cell line CAMA1): 0.398 µM | GI50 (HCC38, HCC38 cell line, censored GI50 values): 0.00372 µM | GI50 (HCC38, cell line HCC38): 0.00372 µM | GI50 (HCC70, HCC70 cell line, censored GI50 values): 19.1 µM | GI50 (HCC70, cell line HCC70): 19.1 µM | GI50 (HCC202, HCC202 cell line, censored GI50 values): 0.759 µM | GI50 (HCC202, cell line HCC202): 0.759 µM | GI50 (HCC1143, HCC1143 cell line, censored GI50 values): 0.257 µM | GI50 (HCC1143, cell line HCC1143): 0.257 µM | GI50 (HCC1187, HCC1187 cell line, censored GI50 values): 0.309 µM | GI50 (HCC1187, cell line HCC1187): 0.309 µM | GI50 (HCC1395, HCC1395 cell line, censored GI50 values): 0.0151 µM | GI50 (HCC1395, cell line HCC1395): 0.0151 µM | GI50 (HCC1419, HCC1419 cell line, censored GI50 values): 0.363 µM | GI50 (HCC1419, cell line HCC1419): 0.363 µM | GI50 (HCC1428, HCC1428 cell line, censored GI50 values): 0.447 µM | GI50 (HCC1428, cell line HCC1428): 0.447 µM | GI50 (HCC1500, HCC1500 cell line, censored GI50 values): 0.0145 µM | GI50 (HCC1500, cell line HCC1500): 0.0145 µM | GI50 (HCC1806, HCC1806 cell line, censored GI50 values): 0.0204 µM | GI50 (HCC1806, cell line HCC1806): 0.0204 µM | GI50 (HCC1954, HCC1954 cell line, censored GI50 values): 0.302 µM | GI50 (HCC1954, cell line HCC1954): 0.302 µM | GI50 (HCC2185 cell line, censored GI50 values): 0.0407 µM | GI50 (HCC3153 cell line, censored GI50 values): 0.209 µM | GI50 (LY2 cell line, censored GI50 values): 0.257 µM | GI50 (MCF7, MCF7 cell line, censored GI50 values): 1.32 µM | GI50 (MCF7, cell line MCF7): 1.32 µM | GI50 (MDA-MB-134-VI, MDAMB134VI cell line, censored GI50 values): 0.115 µM | GI50 (MDA-MB-157, MDAMB157 cell line, censored GI50 values): 0.398 µM | GI50 (MDA-MB-157, cell line MDAMB157): 0.398 µM | GI50 (MDA-MB-175-VII, MDAMB175VII cell line, censored GI50 values): 2.88 µM | GI50 (MDA-MB-231, MDAMB231 cell line, censored GI50 values): 1.17 µM | GI50 (MDA-MB-231, cell line MDAMB231): 1.17 µM | GI50 (MDA-MB-361, MDAMB361 cell line, censored GI50 values): 0.525 µM | GI50 (MDA-MB-361, cell line MDAMB361): 0.525 µM | GI50 (MDA-MB-415, MDAMB415 cell line, censored GI50 values): 0.191 µM | GI50 (MDA-MB-415, cell line MDAMB415): 0.191 µM | GI50 (MDA-MB-436, MDAMB436 cell line, censored GI50 values): 0.0302 µM | GI50 (MDA-MB-436, cell line MDAMB436): 0.0302 µM | GI50 (MDA-MB-453, MDAMB453 cell line, censored GI50 values): 0.0851 µM | GI50 (MDA-MB-453, cell line MDAMB453): 0.0851 µM | GI50 (MDA-MB-468, MDAMB468 cell line, censored GI50 values): 0.0457 µM | GI50 (MDA-MB-468, cell line MDAMB468): 0.0457 µM | GI50 (SK-BR-3, SKBR3 cell line, censored GI50 values): 0.0112 µM | GI50 (SK-BR-3, cell line SKBR3): 0.0112 µM | GI50 (SUM44PE cell line, censored GI50 values): 0.372 µM | GI50 (SUM52PE, SUM52PE cell line, censored GI50 values): 0.00832 µM | GI50 (SUM52PE, cell line SUM52PE): 0.00832 µM | GI50 (SUM185PE, SUM185PE cell line, censored GI50 values): 0.0631 µM | GI50 (SUM185PE, cell line SUM185PE): 0.0631 µM | GI50 (SUM1315MO2, SUM1315MO2 cell line, censored GI50 values): 0.00832 µM | GI50 (SUM-159-PT, SUM159PT cell line, censored GI50 values): 0.741 µM | GI50 (SUM-159-PT, cell line SUM159PT): 0.741 µM | GI50 (UACC-812, UACC812 cell line, censored GI50 values): 0.0603 µM | GI50 (UACC-812, cell line UACC812): 0.0603 µM | GI50 (UACC-893, UACC893 cell line, censored GI50 values): 0.347 µM | GI50 (UACC-893, cell line UACC893): 0.347 µM | GI50 (ZR-75-1, ZR751 cell line, censored GI50 values): 0.0407 µM | GI50 (ZR-75-1, cell line ZR751): 0.0407 µM | GI50 (ZR-75B, ZR75B cell line, censored GI50 values): 0.0631 µM | GI50 (ZR-75B, cell line ZR75B): 0.0631 µM | GI50 (cell line HCC2185): 0.0407 µM | GI50 (cell line HCC3153): 0.209 µM | GI50 (cell line LY2): 0.257 µM | GI50 (cell line MDAMB134V): 0.115 µM | GI50 (cell line MDAMB175V): 2.88 µM | GI50 (cell line SUM44PE): 0.372 µM | GI50 (cell line SUM1315MO): 0.00832 µM
